In PubChem BioAssay (NCI):
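The concentration for 50% growth inhibition is given as GI50. At the TGI there is no net growth.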

Tests used:
Experiment in all cases: NCI-60 cell line screen, 384-well format
786-0 renal = system: 786-0 renal
A498 renal = system: A498 renal
A549 NSCLC = system: A549 NSCLC
ACHN renal = system: ACHN renal
BT-549 breast = system: BT-549 breast
CAKI-1 renal = system: CAKI-1 renal
CCRF-CEM leukemia = system: CCRF-CEM leukemia
COLO 205 colon = system: COLO 205 colon
DU-145 prostate = system: DU-145 prostate
EKVX NSCLC = system: EKVX NSCLC
HCC-2998 colon = system: HCC-2998 colon
HCT-116 colon = system: HCT-116 colon
HCT-15 colon = system: HCT-15 colon
HL-60(TB) leukemia = system: HL-60(TB) leukemia
HOP-62 NSCLC = system: HOP-62 NSCLC
HOP-92 NSCLC = system: HOP-92 NSCLC
HS 578T breast = system: HS 578T breast
HT29 colon = system: HT29 colon
IGROV1 ovarian = system: IGROV1 ovarian
K-562 leukemia = system: K-562 leukemia
KM12 colon = system: KM12 colon
LOX IMVI melanoma = system: LOX IMVI melanoma
M14 melanoma = system: M14 melanoma
MALME-3M melanoma = system: MALME-3M melanoma
MCF7 breast = system: MCF7 breast
MDA-MB-231 breast = system: MDA-MB-231 breast
MDA-MB-435 melanoma = system: MDA-MB-435 melanoma
MDA-MB-468 breast = system: MDA-MB-468 breast
MOLT-4 leukemia = system: MOLT-4 leukemia
NCI-H226 lung = system: NCI-H226 lung
NCI-H23 lung = system: NCI-H23 lung
NCI-H322M lung = system: NCI-H322M lung
NCI-H460 NSCLC = system: NCI-H460 NSCLC
NCI-H522 lung = system: NCI-H522 lung
NCI/ADR-RES ovarian = system: NCI/ADR-RES ovarian
OVCAR-3 ovarian = system: OVCAR-3 ovarian
OVCAR-4 ovarian = system: OVCAR-4 ovarian
OVCAR-5 ovarian = system: OVCAR-5 ovarian
OVCAR-8 ovarian = system: OVCAR-8 ovarian
PC-3 prostate = system: PC-3 prostate
RPMI-8226 leukemia = system: RPMI-8226 leukemia
RXF 393 renal = system: RXF 393 renal
SF-268 CNS = system: SF-268 CNS
SF-295 CNS = system: SF-295 CNS
SF-539 CNS = system: SF-539 CNS
SK-MEL-28 melanoma = system: SK-MEL-28 melanoma
SK-MEL-5 melanoma = system: SK-MEL-5 melanoma
SK-OV-3 ovarian = system: SK-OV-3 ovarian
SN12C renal = system: SN12C renal
SNB-19 CNS = system: SNB-19 CNS
SNB-75 CNS = system: SNB-75 CNS
SR leukemia = system: SR leukemia
SW-620 colon = system: SW-620 colon
T-47D breast = system: T-47D breast
TK-10 renal = system: TK-10 renal
U251 glioblastoma = system: U251 glioblastoma
UACC-257 melanoma = system: UACC-257 melanoma
UO-31 renal = system: UO-31 renal

NC(=O)c1ccc(-c2nc(-c3ccc4c(c3)OCO4)c(-c3ccccn3)[nH]2)cc1
GI50 ([…]-0 renal): 28 µM
TGI (786-0 renal): 81.6 µM
GI50 (A498 renal): 23.4 µM
TGI (A498 renal): 56.3 µM
GI50 (A549 NSCLC): 21.1 µM
TGI (A549 NSCLC): 57.1 µM
GI50 (ACHN renal): 44.7 µM
TGI (ACHN renal): > 100 µM
GI50 (BT-549 breast): 17.5 µM
TGI (BT-549 breast): 64.3 µM
GI50 (CAKI-1 renal): 28.4 µM
TGI (CAKI-1 renal): 72.9 µM
GI50 (CCRF-CEM leukemia): 18.1 µM
TGI (CCRF-CEM leukemia): 38.7 µM
GI50 (COLO 205 colon): 21.7 µM
TGI (COLO 205 colon): 39.3 µM
GI50 (DU-145 prostate): 23.7 µM
TGI (DU-145 prostate): 52.1 µM
GI50 (EKVX NSCLC): 14.3 µM
TGI (EKVX NSCLC): 59.1 µM
GI50 (HCC-2998 colon): 16.7 µM
TGI (HCC-2998 colon): 36.3 µM
GI50 (HCT-116 colon): 16.9 µM
TGI (HCT-116 colon): 32.2 µM
GI50 (HCT-15 colon): 18.9 µM
TGI (HCT-15 colon): 36 µM
GI50 (HL-60(TB) leukemia): 17.8 µM
TGI (HL-60(TB) leukemia): 31.7 µM
GI50 (HOP-62 NSCLC): 18.5 µM
TGI (HOP-62 NSCLC): 43 µM
GI50 (HOP-92 NSCLC): 30.7 µM
TGI (HOP-92 NSCLC): 95.7 µM
GI50 (HS 578T breast): 25.3 µM
TGI (HS 578T breast): 60.1 µM
GI50 (HT29 colon): 19.9 µM
TGI (HT29 colon): 44.9 µM
GI50 (IGROV1 ovarian): 19.6 µM
TGI (IGROV1 ovarian): 46.1 µM
GI50 (K-562 leukemia): 35.3 µM
TGI (K-562 leukemia): > 100 µM
GI50 (KM12 colon): 27 µM
TGI (KM12 colon): 73.2 µM
GI50 (LOX IMVI melanoma): 14.2 µM
TGI (LOX IMVI melanoma): 29.4 µM
GI50 (M14 melanoma): 24.4 µM
TGI (M14 melanoma): 83.2 µM
GI50 (MALME-3M melanoma): 29.7 µM
TGI (MALME-3M melanoma): 52.4 µM
GI50 (MCF7 breast): 20.6 µM
TGI (MCF7 breast): 49.1 µM
GI50 (MDA-MB-231 breast): 22.2 µM
TGI (MDA-MB-231 breast): 83 µM
GI50 (MDA-MB-435 melanoma): 39.6 µM
TGI (MDA-MB-435 melanoma): > 100 µM
GI50 (MDA-MB-468 breast): 17.9 µM
TGI (MDA-MB-468 breast): 36.9 µM
GI50 (MOLT-4 leukemia): 16.5 µM
TGI (MOLT-4 leukemia): 30.3 µM
GI50 (NCI-H226 lung): 17.2 µM
TGI (NCI-H226 lung): 32.7 µM
GI50 (NCI-H23 lung): 22 µM
TGI (NCI-H23 lung): 47.7 µM
GI50 (NCI-H322M lung): 27.9 µM
TGI (NCI-H322M lung): 90.6 µM
GI50 (NCI-H460 NSCLC): 14.4 µM
TGI (NCI-H460 NSCLC): 28.1 µM
GI50 (NCI-H522 lung): 24.2 µM
TGI (NCI-H522 lung): 46.1 µM
GI50 (NCI/ADR-RES ovarian): 16.4 µM
TGI (NCI/ADR-RES ovarian): 33.3 µM
GI50 (OVCAR-3 ovarian): 21.6 µM
TGI (OVCAR-3 ovarian): 47.1 µM
GI50 (OVCAR-4 ovarian): 26.7 µM
TGI (OVCAR-4 ovarian): 71.6 µM
GI50 (OVCAR-5 ovarian): 26.6 µM
TGI (OVCAR-5 ovarian): 81.9 µM
GI50 (OVCAR-8 ovarian): 22.6 µM
TGI (OVCAR-8 ovarian): 52.2 µM
GI50 (PC-3 prostate): 27.2 µM
TGI (PC-3 prostate): > 100 µM
GI50 (RPMI-8226 leukemia): 15.7 µM
TGI (RPMI-8226 leukemia): 30.4 µM
GI50 (RXF 393 renal): 11.9 µM
TGI (RXF 393 renal): 26.8 µM
GI50 (SF-268 CNS): 38 µM
TGI (SF-268 CNS): > 100 µM
GI50 (SF-295 CNS): 20.2 µM
TGI (SF-295 CNS): 43.3 µM
GI50 (SF-539 CNS): 41.8 µM
TGI (SF-539 CNS): > 100 µM
GI50 (SK-MEL-28 melanoma): 32.9 µM
TGI (SK-MEL-28 melanoma): 86.5 µM
GI50 (SK-MEL-5 melanoma): 7.13 µM
TGI (SK-MEL-5 melanoma): 19.5 µM
GI50 (SK-OV-3 ovarian): 24.3 µM
TGI (SK-OV-3 ovarian): 64.9 µM
GI50 (SN12C renal): 39.1 µM
TGI (SN12C renal): > 100 µM
GI50 (SNB-19 CNS): 40.1 µM
TGI (SNB-19 CNS): > 100 µM
GI50 (SNB-75 CNS): 42.4 µM
TGI (SNB-75 CNS): > 100 µM
GI50 (SR leukemia): 17.5 µM
TGI (SR leukemia): 32.4 µM
GI50 (SW-620 colon): 60.6 µM
TGI (SW-620 colon): > 100 µM
GI50 (T-47D breast): 20.4 µM
TGI (T-47D breast): 42.4 µM
GI50 (TK-10 renal): 24.6 µM
TGI (TK-10 renal): 60.4 µM
GI50 (U251 glioblastoma): 35.2 µM
TGI (U251 glioblastoma): > 100 µM
GI50 (UACC-257 melanoma): 22.4 µM
TGI (UACC-257 melanoma): 43 µM
GI50 (UO-31 renal): 42.6 µM
TGI (UO-31 renal): > 100 µM
